#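 Protocol summary: plate cells (96-well), add compound at 5 concentrations, incubate 48 h, interpolate endpoints linearly. TGI is the concentration that stops growth completely.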
# What was measured:
# Experiment in all cases: NCI anticancer screen, dose series, 48 h
# [1] = tested on: 786-0 renal
# [2] = tested on: NCI-H522 lung
# [3] = tested on: IGROV1 ovarian
# [4] = tested on: A498 renal
# [5] = tested on: U251 CNS
# [6] = tested on: UO-31 renal
# [7] = tested on: EKVX NSCLC
# [8] = tested on: MDA-MB-231 breast
# [9] = tested on: HS 578T breast
# [10] = tested on: HCT-116 colon
# [11] = tested on: SK-OV-3 ovarian
# [12] = tested on: NCI-H460 lung
# [13] = tested on: MDA-MB-435
# [14] = tested on: MDA-N
# [15] = tested on: SW-620 colon
# [16] = tested on: SNB-19 CNS
# [17] = tested on: A549 NSCLC
# [18] = tested on: HOP-62 NSCLC
# [19] = tested on: MALME-3M melanoma
# [20] = tested on: SR leukemia
SMILES,TGI [1],TGI [2],TGI [3],TGI [4],TGI [5],TGI [6],TGI [7],TGI [8],TGI [9],TGI [10],TGI [11],TGI [12],TGI [13],TGI [14],TGI [15],TGI [16],TGI [17],TGI [18],TGI [19],TGI [20]
COC(=O)C1C2CC3C1C3C2C(=O)OC (configuration not stated),> 100 µM,> 100 µM,> 100 µM,> 100 µM,> 100 µM,> 100 µM,> 100 µM,> 100 µM,> 100 µM,> 100 µM,> 100 µM,> 100 µM,> 100 µM,> 100 µM,> 100 µM,> 100 µM,> 100 µM,> 100 µM,> 100 µM,–
Cc1ccc2c(=O)cc(-c3ccsc3)[nH]c2n1,> 100 µM,> 27.3 µM,> 100 µM,> 100 µM,> 55.2 µM,9.47 µM,> 100 µM,> 87.6 µM,26.2 µM,> 75.6 µM,72.6 µM,> 100 µM,–,2.09 µM,> 21.1 µM,86.7 µM,> 44.7 µM,> 100 µM,> 100 µM,–
C[C@]12CC[C@H](O)CC1=CC[C@@H]1[C@@H]2CC[C@]2(C)C(=N/O)/C(=C/c3ccc([N+](=O)[O-])cc3)C[C@@H]12,7.67 µM,16.4 µM,26.7 µM,11.7 µM,–,24.7 µM,7.37 µM,–,63.5 µM,15.7 µM,22.5 µM,18.5 µM,40.8 µM,28.4 µM,> 100 µM,22.4 µM,17.7 µM,21.1 µM,22.1 µM,22.5 µM
COC(=O)/C=C\C(C#N)(C#N)N=Cc1ccc(Br)s1,12.9 µM,3.33 µM,31.9 µM,31.5 µM,38 µM,7.18 µM,26.4 µM,4.51 µM,> 85.5 µM,34.8 µM,33.4 µM,48 µM,13.9 µM,24.4 µM,5.53 µM,21.9 µM,45.4 µM,31.8 µM,4.27 µM,–
CC(=O)OCC(OC(C)=O)C(OC(C)=O)C(OC(C)=O)C(C=NN(C(C)=O)S(=O)(=O)c1ccc(/C=C2\NC(=O)NC2=O)cc1)OC(C)=O (configuration not stated),> 100 µM,> 100 µM,> 100 µM,> 100 µM,> 100 µM,> 100 µM,> 100 µM,> 100 µM,> 100 µM,> 100 µM,> 100 µM,> 100 µM,> 100 µM,> 100 µM,> 100 µM,> 100 µM,> 100 µM,> 100 µM,> 100 µM,–
CC(=O)O[C@H]1CCC2[C@@H]3CCC4Cc5nc6c(nc5C[C@]4(C)C3CC[C@@]21C)CC1CC[C@@H]2C(CC[C@@]3(C)C2CC[C@@H]3C(C)CCCC(C)C)[C@@]1(C)C6 (some centres not stated),> 100 µM,–,> 100 µM,–,> 100 µM,> 100 µM,> 100 µM,> 100 µM,> 100 µM,> 100 µM,> 100 µM,> 100 µM,> 100 µM,> 100 µM,> 100 µM,> 100 µM,> 100 µM,> 100 µM,> 100 µM,–
COc1cc(N(Cc2ccc3nc(OC)c(OC)nc3c2)Cc2ccc3nc(OC)c(OC)nc3c2)cc(OC)c1OC,> 50 µM,> 50 µM,–,–,> 50 µM,> 50 µM,> 50 µM,–,27.2 µM,> 50 µM,> 50 µM,–,> 50 µM,> 50 µM,> 50 µM,47.7 µM,> 50 µM,> 50 µM,> 50 µM,> 50 µM
O[C@@H]1C[C@H]2N3CC[C@@]2(c2cc4c(cc2C3)OCO4)[C@H]2O[C@@H]12,> 100 µM,> 100 µM,> 100 µM,> 100 µM,> 100 µM,> 100 µM,> 100 µM,> 100 µM,> 100 µM,> 100 µM,> 100 µM,> 100 µM,> 100 µM,> 100 µM,> 100 µM,> 100 µM,> 100 µM,> 100 µM,> 100 µM,–
CC(=O)N1CC(=O)N2C(=O)/C(=C/c3ccc(Cl)cc3)N=C12,> 100 µM,–,–,> 100 µM,> 100 µM,> 100 µM,> 100 µM,> 100 µM,> 100 µM,> 100 µM,> 100 µM,> 100 µM,> 100 µM,> 100 µM,> 100 µM,> 100 µM,> 100 µM,> 100 µM,> 100 µM,–
COC(=O)CSC(=S)Nc1nnc(NC(=S)SCOC(C)=O)n1C(=S)SCC(=O)OC,> 100 µM,–,> 100 µM,> 100 µM,> 100 µM,> 100 µM,> 100 µM,–,> 100 µM,> 100 µM,–,> 100 µM,> 100 µM,> 100 µM,> 100 µM,> 100 µM,–,37.5 µM,–,> 100 µM

# Source: PubChem BioAssay (NCI)
